Assay results published in patent US20200253211A1, “PHOTODYNAMIC INHIBITION OF MICROBIAL PATHOGENS IN PLANTS” (SUNCOR ENERGY INC, priority 2017, published 2020).

Columns and labels:
Sclerotinia homoeocarpa [1] = assay: Radial growth of dollar spot fungus on amended Potato Dextrose Agar, dark vs light; type: cell-based
Sclerotinia homoeocarpa [2] = assay: Radial growth of dollar spot fungus after treatment of plugs in PBS (24 well plates), dark vs light; type: cell-based
Method: In this example, control of dollar spot fungus (Sclerotinia homoeocarpa) with chlorins combined with a chelating agent was assessed. Treatments were prepared in Phosphate Buffered Saline (PBS) in 24 well plates (in duplicates for light vs. dark incubation) at desired concentrations. Then, a 5 mm diameter plug of a Sclerotinia homoeocarpa isolate (3 isolates total tested) was inoculated into the PBS and incubated at 21° C. in the dark for 2 hours. After 2 hours, one of the 24 well plates (with isolates in triplicate) is left in the dark and one 24 well plate is placed under illumination for 1 hour (all at 21° C.). Following illumination, fungal plugs are removed from PBS, blotted dry on sterile filter paper and transferred to non-amended Potato Dextrose Agar (PDA). Radial growth of the fungus is monitored daily until the growth of S. homoeocarpa reaches the edge of the Petri-dish. Illumination is provided by LED lights emitting about 1000 μmol/m^2/s photosynthetically active radiation (PAR). In this example, control of dollar spot fungus (Sclerotinia homoeocarpa) with Zinc Protoporphyrin IX (Zn-PPIX) combined with EDTA was assessed. Treatments were prepared in Phosphate Buffered Saline (PBS) in 24 well plates (in duplicates for light vs. dark incubation) at desired concentrations. Then, a 5 mm diameter plug of a Sclerotinia homoeocarpa isolate (3 isolates total tested) was inoculated into the PBS and incubated at 21° C. in the dark for 2 hours. After 2 hours, one of the 24 well plates (with isolates in triplicate) is left in the dark and one 24 well plate is placed under illumination for 1 hour (all at 21° C.). Following illumination, fungal plugs are removed from PBS, blotted dry on sterile filter paper and transferred to non-amended Potato Dextrose Agar (PDA). Radial growth of the fungus is monitored daily until the growth of S. homoeocarpa reaches the edge of the Petri-dish. Illumination is provided by LED lights emitting about 1000 μmol/m^2/s photosynthetically active radiation (PAR). In this example, control of dollar spot fungus (Sclerotinia homoeocarpa) with bacteriochlorin combined with EDTA was assessed. Treatments were prepared in Phosphate Buffered Saline (PBS) in 24 well plates (in duplicates for light vs. dark incubation) at desired concentrations. Then, a 5 mm diameter plug of a Sclerotinia homoeocarpa isolate (3 isolates total tested) was inoculated into the PBS and incubated at 21° C. in the dark for 2 hours. After 2 hours, one of the 24 well plates (with isolates in triplicate) is left in the dark and one 24 well plate is placed under illumination for 1 hour (all at 21° C.). Following illumination, fungal plugs are removed from PBS, blotted dry on sterile filter paper and transferred to non-amended Potato Dextrose Agar (PDA). Radial growth of the fungus is monitored daily until the growth of S. homoeocarpa reaches the edge of the Petri-dish. Illumination is provided by LED lights emitting about 1000 μmol/m^2/s photosynthetically active radiation (PAR). In this example, control of dollar spot fungus (Sclerotinia homoeocarpa) with Aluminum chlorin e6 combined with EDTA was assessed. Treatments were prepared in Phosphate Buffered Saline (PBS) in 24 well plates (in duplicates for light vs. dark incubation) at desired concentrations. Then, a 5 mm diameter plug of a Sclerotinia homoeocarpa isolate (3 isolates total tested) was inoculated into the PBS and incubated at 21° C. in the dark for 2 hours. After 2 hours, one of the 24 well plates (with isolates in triplicate) is left in the dark and one 24 well plate is placed under illumination for 1 hour (all at 21° C.). Following illumination, fungal plugs are removed from PBS, blotted dry on sterile filter paper and transferred to non-amended Potato Dextrose Agar (PDA). Radial growth of the fungus is monitored daily until the growth of S. homoeocarpa reaches the edge of the Petri-dish. Illumination is provided by LED lights emitting about 1000 μmol/m^2/s photosynthetically active radiation (PAR). […]

[3] = Table 16B, light, Chlorin Rate 5 μM
[4] = Table 16B, light, Chlorin Rate 10 μM
[5] = Table 16B, light, Chlorin Rate 31 μM
[6] = Table 17D, light, rate 31.62 μM
[7] = Table 17D, light, rate 316.2 μM
[8] = Table 22A, dark, rate 10 μM, growth between 48 and 72 hours
[9] = Table 22B, light, rate 10 μM, growth between 48 and 72 hours

Question: How did the “% Inhibition” value (Sclerotinia homoeocarpa [1]; Table 16A, dark, rate 5 μM) turn out when `C=Cc1c(C)c2cc3nc(c(CC(=O)O)c4[n-]c(cc5nc(cc1[n-]2)C(C)=C5CC)c(C)c4C(=O)O)C(CCC(=O)O)C3C.[Pd+2]` (stereo not drawn) [PdCe6] was run?
Answer: 18.82%

Question: And the “Mean Radial Growth” value (Sclerotinia homoeocarpa [1]; Table 16A, dark, rate 5 μM)?
Answer: 11.5 mm

Question: And the “% Inhibition” value (Sclerotinia homoeocarpa [1]; Table 16A, dark, rate 10 μM)?
Answer: 36.47%

Question: What about the “Mean Radial Growth” value (Sclerotinia homoeocarpa [1]; Table 16A, dark, rate 10 μM) of the same compound?
Answer: 9.0 mm

Question: And the “% Inhibition” value (Sclerotinia homoeocarpa [1]; Table 16A, dark, rate 31 μM)?
Answer: 42.75%

Question: And the “Mean Radial Growth” value (Sclerotinia homoeocarpa [1]; Table 16A, dark, rate 31 μM)?
Answer: 8.1 mm

Question: And the “% Inhibition” value (Sclerotinia homoeocarpa [1]; [3])?
Answer: 49.3%

Question: What about the “Mean Radial Growth” value (Sclerotinia homoeocarpa [1]; [3]) of the same compound?
Answer: 6.2 mm

Question: What about the “% Inhibition” value (Sclerotinia homoeocarpa [1]; [4]) of the same compound?
Answer: 76.9%

Question: And the “Mean Radial Growth” value (Sclerotinia homoeocarpa [1]; [4])?
Answer: 2.8 mm

Question: What about the “% Inhibition” value (Sclerotinia homoeocarpa [1]; [5]) of the same compound?
Answer: 100.0%

Question: And the “Mean Radial Growth” value (Sclerotinia homoeocarpa [1]; [5])?
Answer: 0 mm

Question: How did the “% Inhibition” value (Sclerotinia homoeocarpa [1]; Table 17C, dark, rate 31.62 μM) turn out when `C=Cc1c(C)c2cc3nc(c(CC(=O)[O-])c4[n-]c(cc5nc(cc1[n-]2)C(C)=C5CC)c(C)c4C(=O)[O-])C(CCC(=O)[O-])C3C.[Cu+2].[Na+].[Na+].[Na+]` (stereo not drawn) [Cu Chlorophyllin (CuChln), Cu chlorophyllin, reference compound] was run?
Answer: −3.13%

Question: What about the “Mean Radial Growth” value (Sclerotinia homoeocarpa [1]; Table 17C, dark, rate 31.62 μM) of the same compound?
Answer: 14.30 mm

Question: And the “% Inhibition” value (Sclerotinia homoeocarpa [1]; Table 17C, dark, rate 100 μM)?
Answer: −3.37%

Question: And the “Mean Radial Growth” value (Sclerotinia homoeocarpa [1]; Table 17C, dark, rate 100 μM)?
Answer: 14.33 mm

Question: What about the “% Inhibition” value (Sclerotinia homoeocarpa [1]; Table 17C, dark, rate 316.2 μM) of the same compound?
Answer: −5.29%

Question: What about the “Mean Radial Growth” value (Sclerotinia homoeocarpa [1]; Table 17C, dark, rate 316.2 μM) of the same compound?
Answer: 14.60 mm

Question: And the “% Inhibition” value (Sclerotinia homoeocarpa [1]; Table 17C, dark, rate 1000 μM)?
Answer: −3.85%

Question: And the “Mean Radial Growth” value (Sclerotinia homoeocarpa [1]; Table 17C, dark, rate 1000 μM)?
Answer: 14.40 mm

Question: And the “% Inhibition” value (Sclerotinia homoeocarpa [1]; [6])?
Answer: −18.93%

Question: What about the “Mean Radial Growth” value (Sclerotinia homoeocarpa [1]; [6]) of the same compound?
Answer: 14.03 mm

Question: What about the “% Inhibition” value (Sclerotinia homoeocarpa [1]; Table 17D, light, rate 100 μM) of the same compound?
Answer: −20.34%

Question: What about the “Mean Radial Growth” value (Sclerotinia homoeocarpa [1]; Table 17D, light, rate 100 μM) of the same compound?
Answer: 14.20 mm

Question: What about the “% Inhibition” value (Sclerotinia homoeocarpa [1]; [7]) of the same compound?
Answer: −26.55%

Question: What about the “Mean Radial Growth” value (Sclerotinia homoeocarpa [1]; [7]) of the same compound?
Answer: 14.93 mm

Question: And the “% Inhibition” value (Sclerotinia homoeocarpa [1]; Table 17D, light, rate 1000 μM)?
Answer: −28.81%

Question: And the “Mean Radial Growth” value (Sclerotinia homoeocarpa [1]; Table 17D, light, rate 1000 μM)?
Answer: 15.20 mm

Question: Which “% Inhibition” value (Sclerotinia homoeocarpa [2]; Table 21A, dark, rate 1 μM) does the source give for Aluminum chlorin e6 [AlCe6] here?
Answer: −4%

Question: What about the “Mean Radial Growth” value (Sclerotinia homoeocarpa [2]; Table 21A, dark, rate 1 μM) of the same compound?
Answer: 13 mm

Question: And the “% Inhibition” value (Sclerotinia homoeocarpa [2]; Table 21A, dark, rate 10 μM)?
Answer: −5.33%

Question: What about the “Mean Radial Growth” value (Sclerotinia homoeocarpa [2]; Table 21A, dark, rate 10 μM) of the same compound?
Answer: 13.17 mm

Question: What about the “% Inhibition” value (Sclerotinia homoeocarpa [2]; Table 21B, light, rate 1 μM) of the same compound?
Answer: −2.18%

Question: What about the “Mean Radial Growth” value (Sclerotinia homoeocarpa [2]; Table 21B, light, rate 1 μM) of the same compound?
Answer: 13 mm

Question: What about the “% Inhibition” value (Sclerotinia homoeocarpa [2]; Table 21B, light, rate 10 μM) of the same compound?
Answer: 62.45%

Question: What about the “Mean Radial Growth” value (Sclerotinia homoeocarpa [2]; Table 21B, light, rate 10 μM) of the same compound?
Answer: 4.78 mm

Question: And the “% Inhibition” value (Sclerotinia homoeocarpa [1]; Table 16A, dark, rate 5 μM)?
Answer: 1.85%

Question: And the “Mean Radial Growth” value (Sclerotinia homoeocarpa [1]; Table 16A, dark, rate 5 μM)?
Answer: 13.8 mm

Question: What about the “% Inhibition” value (Sclerotinia homoeocarpa [1]; Table 16A, dark, rate 10 μM) of the same compound?
Answer: 3.70%

Question: And the “Mean Radial Growth” value (Sclerotinia homoeocarpa [1]; Table 16A, dark, rate 10 μM)?
Answer: 13.0 mm

Question: And the “% Inhibition” value (Sclerotinia homoeocarpa [1]; Table 16A, dark, rate 31 μM)?
Answer: 3.09%

Question: And the “Mean Radial Growth” value (Sclerotinia homoeocarpa [1]; Table 16A, dark, rate 31 μM)?
Answer: 13.1 mm

Question: And the “% Inhibition” value (Sclerotinia homoeocarpa [1]; [3])?
Answer: 11.0%

Question: And the “Mean Radial Growth” value (Sclerotinia homoeocarpa [1]; [3])?
Answer: 11.4 mm

Question: What about the “% Inhibition” value (Sclerotinia homoeocarpa [1]; [4]) of the same compound?
Answer: 41.6%

Question: What about the “Mean Radial Growth” value (Sclerotinia homoeocarpa [1]; [4]) of the same compound?
Answer: 7.5 mm

Question: And the “% Inhibition” value (Sclerotinia homoeocarpa [1]; [5])?
Answer: 100.0%

Question: What about the “Mean Radial Growth” value (Sclerotinia homoeocarpa [1]; [5]) of the same compound?
Answer: 0.0 mm

Question: What does the source list for `C=CC1=C(C)c2cc3[n-]c(cc4[n-]c(cc5nc(cc1n2)C(C)=C5C=C)c(C)c4CCC(=O)O)c(CCC(=O)O)c3C.[Zn+2]` [Zn Protoporphyrin IX (PPIX), Zinc Protoporphyrin IX]?
Answer: % Inhibition (Sclerotinia homoeocarpa [2]; Table 19A, light, rate 10 μM): 7.50%; Mean Radial Growth (Sclerotinia homoeocarpa [2]; Table 19A, light, rate 10 μM): 10.28 mm

Question: `CC1=C(CCC(=O)O)c2cc3[nH]c(cc4nc(cc5[nH]c(cc1n2)c(C(C)O)c5C)C(C(C)O)=C4C)c(C)c3CCC(=O)O.Cl.Cl` (stereo not drawn) [Hematoporphyrin IX dichloride (HemIX), hematoporphyrin IX dichloride] was tested. Which “% Inhibition” value (Sclerotinia homoeocarpa [2]; [8]) did it give?
Answer: −5.45%

Question: And the “Mean Radial Growth” value (Sclerotinia homoeocarpa [2]; [8])?
Answer: 15.06 mm

Question: What about the “% Inhibition” value (Sclerotinia homoeocarpa [2]; [9]) of the same compound?
Answer: 38.87%

Question: What about the “Mean Radial Growth” value (Sclerotinia homoeocarpa [2]; [9]) of the same compound?
Answer: 8.39 mm
